In patent US7399763B2, “8-hydroxy-1-oxo-tetrahydropyrrolopyrazine compounds useful as HIV integrase inhibitors” (Merck & Co., Inc., priority 2002, dated 2008) one finds IC95 data, which are given here for nine compounds.

Bounds are passed on as bounds.

As usually defined, the IC95 is the concentration needed for an effect of 95%.

For the assay, the system named is HIV. Description: Assay for inhibition of HIV replication (acute HIV infection of T-lymphoid cells). The format is cell-based. Conditions: Human immunodeficiency virus 1, per Vacca et al. 1994. As to the method:
Assay for Inhibition of HIV Replication
Assays for the inhibition of acute HIV infection of T-lymphoid cells were conducted in accordance with Vacca, J. P. et al., Proc. Natl. Acad. Sci. USA 1994, 91: 4096.
The compound `CNC(=O)c1cn2c(c1O)C(=O)N(Cc1ccc(Cl)cc1)CC2` [Example 16, 2-(4-Chlorobenzyl)-8-hydroxy-N-methyl-1-oxo-1,2,3,4-tetrahydropyrrolo[1,2-α]pyrazine-7-carboxamide] displayed an IC95 of at most 20 µM.
Under `CNC(=O)c1cn2c(c1O)C(=O)N(Cc1ccc(F)c(F)c1)CC2` [Example 17, 2-(3,4-Difluorobenzyl)-8-hydroxy-N-methyl-1-oxo-1,2,3,4-tetrahydropyrrolo[1,2-α]pyrazine-7-carboxamide] stands at most 20 µM; under `CCNC(=O)c1cn2c(c1O)C(=O)N(Cc1ccc(F)cc1)CC2` [Example 6], at most 20 µM; under `CN1CCn2cc(C(=O)NCc3ccc(F)cc3)c(O)c2C1=O` [Example 10, N-(4-Fluorobenzyl)-8-hydroxy-2-methyl-1-oxo-1,2,3,4-tetrahydropyrrolo[1,2-α]pyrazine-7-carboxamide], at most 20 µM.
Next, `CCOC(=O)c1cn2c(c1O)C(=O)N(Cc1cccc(Cl)c1)CC2` [Example 8, Ethyl 2(3-chlorobenzyl)-8-hydroxy-1-oxo-1,2,3,4-tetrahydropyrrolo[1,2-α]pyrazine-7-carboxylate]: at most 20 µM; `CCOC(=O)c1cn2c(c1O)C(=O)N(Cc1ccc(F)cc1)CC2` [Example 3, Ethyl 2-(4-fluorobenzyl)-8-hydroxy-1-oxo-1,2,3,4-tetrahydropyrrolo[1,2-]pyrazine-7-carboxylate]: at most 20 µM; `CCOC(=O)c1cn2c(c1O)C(=O)N(Cc1ccccc1)CC2` [Example 1, Ethyl 2-benzyl-8-hydroxy-1-oxo-1,2,3,4-tetrahydropyrrolo[1,2-α]pyrazine-7-carboxylate]: at most 20 µM.
Under `O=C(NC1CC1)c1cn2c(c1O)C(=O)N(Cc1ccc(F)cc1)CC2` [Example 7, 2-(4Fluorobenzyl)-8-hydroxy-N-cyclopropyl-1-oxo-1,2,3,4-tetrahydropyrrolo[1,2α]pyrazine-7-carboxamide] stands at most 20 µM; under `CNC(=O)c1cn2c(c1O)C(=O)N(Cc1ccc(F)cc1)CC2` [Example 5, 2-(4-Fluorobenzyl)-8-hydroxy-N-methyl-1-oxo-1,2,3,4-tetrahydropyrrolo[1,2α]pyrazine-7-carboxamide], at most 20 µM.
